# Experimental data: patent US8871510B2, “Methods for generating T lymphocytes from hematopoietic stem cells” (University of Utah Research Foundation, priority 2009, dated 2014)
# Tests used:
# [1] = system: mouse lymphoid progenitor cells (c-kit+Sca-1+ lineage-neg CD90.1-neg); assay: Ascorbate versus other anti-oxidants in OP9-DL1 lymphoid progenitor culture (30 days); format: cell-based; settings: added after 14 days, culture through 30 days; anti-oxidants data not shown
# Procedure: To establish the mechanism by which ascorbic acid promotes T cell development, we initially tested whether the anti-oxidant activity of ascorbic acid plays a key role. To test this, mouse lymphoid progenitor cells were isolated from adult bone marrow tissue by flow sorting, based on the phenotype c-kit+Sca-1+ lineage-neg CD90.1-neg, and 1000-2000 cells were plated per ml in the presence of the cytokines IL7 and Flt3L and the stromal cell line OP9-DL1. Cultures were harvested by forceful pipetting every 3-4 days and reseeded on a fresh monolayer of OP9-DL1 cells. After 14 days in culture, the cell number had expanded approximately 1000-fold (data not shown). At this point, the culture was split into two conditions, with one set of cultures supplemented with 1-ascorbic acid-2-phosphate (250 μg/ml), and the passages were continued through 30 days. […] Numbers indicate the percentage of cells with co-expression of CD4 and CD8 or CD3 and TCR.
# [2] = system: Lymphocyte progenitor cells (KLS, Thy1.1-); assay: TLR-L and ascorbic acid effects on NK and T cell development from lymphoid progenitors co-cultured with OP9-DL1; format: cell-based, mouse; settings: SCF contaminated with LPS through production in E. coli
# Procedure: We therefore designed experiments to evaluate the differential effects of TLR-L and ascorbic acid on NK and T cell development from lymphoid progenitors co-cultured with OP9-DL1 stromal cells. Lymphocyte progenitor cells (KLS, Thy1.1-) were sorted from adult mouse bone marrow and 1000-2000 progenitor cells were seeded per well in a 24 well plate coated with OP9-DL1 stroma. Cultures were supplemented with IL-7 (5 ng/ml), Flt3 ligand (5 ng/ml), and SCF (100 ng/ml) plus one of 5 different TLR-L (TLR1/2, TLR3, TLR4, TLR5, and a crude LPS preparation that likely contains a number of TLR-L), with or without addition of a stabilized form of ascorbic acid, phosphoascorbate at a final concentration of 250 μg/ml. Cells were passaged, counted and re-seeded with fresh media and supplements twice a week over a 30-day period. Immunophenotype and viability were evaluated by flow cytometry. Markers for T cell development included CD44, CD25, CD3, CD4, CD8, T cell receptor […] and T cell receptor γδ chains. NK cells were evaluated for the presence of NKp46, NK1.1, and DX5.
# [3] = system: mouse bone marrow-derived progenitor cells; assay: Growth kinetics of bone marrow-derived progenitor cells in OP9-DL1 cultures (cytokines, ΔQ, NH4Cl); format: cell-based
# Excerpt: The combination of Flt3L and IL-7 promotes 10^5-fold expansion over 26 days, while addition of stem cell factor (SCF) enhances this by 5-fold. […] The growth inhibition is mainly due to the failure of selection by TCR signaling, as shown by the failure of CD4^+CD8^+ double positive (DP) cells to survive and expand.
# In this Example, several important variables that are important to the successful development of T lymphocytes from bone marrow-derived cells were identified. […] Our experiments defining optimal culture conditions tell us that in order to promote T cell development from bone marrow-derived progenitor cells, a two-stage culture system is required. In the first stage, bone marrow cells are expanded under the influence of lymphoid-specifying cytokines (IL-7 and Flt3 ligand) and notch signaling delivered by OP9-DL1 cells. The expansion of the resulting pro-T cells is robust, reaching a total expansion of 10^5-fold or more (FIG. 1).
# All cultures were initiated by seeding 2×10^3 FACS-sorted bone marrow progenitor cells, selected based on the surface phenotype c-kit+Sca-1+Thy-1.1-neg lineage-neg, onto a feeder layer of OP9-DL1 stromal cells. All cultures contained 1 ng/ml IL-7 and 5 ng/ml Flt3L and otherwise identical additives (10% fetal calf serum, stabilized alanyl-glutamine, antibiotics, 2-ME, supplemental amino acids, and supplemental vitamins).
Compound,Differentiating effect (CD4/CD8 and CD3/TCR co-expression) [1],other results
O=C(O)CCCCC1CCSS1 (stereo not drawn) [alpha-lipoic acid],not reproduced,
CC(=O)N[C@@H](CS)C(=O)O [N-acetyl-cysteine],not reproduced,
SCF: stem cell factor; in b105 contaminated with LPS through its production in E. coli,,"Promotion of NK cell development in the OP9-DL1 culture system [2]: particularly effective; Enhancement of expansion on addition to Flt3L and IL-7 ([3]; over 26 days, FIG. 1A): 5 fold"
"Cl.N [NH4Cl, reference compound]",,"Expansion of the T lineage ([3]; day 15 of culture, FIG. 1B): cease to expand"
N[C@@H](CS)C(=O)O [1-cysteine],not reproduced,
